Assay results published in ChEMBL document CHEMBL1134420, “Substituent effects within the DNA binding subunit of CBI analogues of the duocarmycins and CC-1065” (Bioorg Med Chem Lett, 2001).

Each molecule was assayed on L1210 (assay: Cytotoxic activity against L1210 leukemia cells). Conditions: Mus musculus, L1210.
Type: functional, cell-based, Mus musculus

In order of falling IC50:
1. O=C1C=C2N(C(=O)c3cc4ccccc4[nH]3)C[C@H]3C[C@@]23c2ccccc21  2.7 nM
2. Cc1ccc2[nH]c(C(=O)N3C[C@H]4C[C@@]45C3=CC(=O)c3ccccc35)cc2c1  2 nM
3. CC#Cc1ccc2[nH]c(C(=O)N3C[C@H]4C[C@@]45C3=CC(=O)c3ccccc35)cc2c1  1 nM
4. O=C1C=C2N(C(=O)c3cc4cc(Br)ccc4[nH]3)C[C@H]3C[C@@]23c2ccccc21  0.5 nM
5. O=C1C=C2N(C(=O)c3cc4cc(Cl)ccc4[nH]3)C[C@H]3C[C@@]23c2ccccc21  0.4 nM
6. C#Cc1ccc2[nH]c(C(=O)N3C[C@H]4C[C@@]45C3=CC(=O)c3ccccc35)cc2c1  0.3 nM
7. COc1cccc2cc(C(=O)N3C[C@H]4C[C@@]45C3=CC(=O)c3ccccc35)[nH]c12  0.3 nM
8. CC(=O)c1cccc2cc(C(=O)N3C[C@H]4C[C@@]45C3=CC(=O)c3ccccc35)[nH]c12  0.3 nM
9. N#Cc1cccc2cc(C(=O)N3C[C@H]4C[C@@]45C3=CC(=O)c3ccccc35)[nH]c12  0.3 nM
10. [N-]=[N+]=Nc1ccc2[nH]c(C(=O)N3C[C@H]4C[C@@]45C3=CC(=O)c3ccccc35)cc2c1  0.3 nM
11. COc1ccc2[nH]c(C(=O)N3C[C@H]4C[C@@]45C3=CC(=O)c3ccccc35)cc2c1  0.05 nM
12. O=C1C=C2N(C(=O)c3cc4cc(OCc5ccccc5)ccc4[nH]3)C[C@H]3C[C@@]23c2ccccc21  0.05 nM
13. CCCCOc1ccc2[nH]c(C(=O)N3C[C@H]4C[C@@]45C3=CC(=O)c3ccccc35)cc2c1  0.05 nM
14. CCCOc1ccc2[nH]c(C(=O)N3C[C@H]4C[C@@]45C3=CC(=O)c3ccccc35)cc2c1  0.04 nM
15. CCC(=O)Nc1ccc2[nH]c(C(=O)N3C[C@H]4C[C@@]45C3=CC(=O)c3ccccc35)cc2c1  0.03 nM
16. N#Cc1ccc2[nH]c(C(=O)N3C[C@H]4C[C@@]45C3=CC(=O)c3ccccc35)cc2c1  0.03 nM
17. CC(=O)N(C)c1ccc2[nH]c(C(=O)N3C[C@H]4C[C@@]45C3=CC(=O)c3ccccc35)cc2c1  0.03 nM
18. CCCC(=O)Nc1ccc2[nH]c(C(=O)N3C[C@H]4C[C@@]45C3=CC(=O)c3ccccc35)cc2c1  0.03 nM
19. CC(=O)Nc1ccc2[nH]c(C(=O)N3C[C@H]4C[C@@]45C3=CC(=O)c3ccccc35)cc2c1  0.03 nM
20. CCCC(=O)c1ccc2[nH]c(C(=O)N3C[C@H]4C[C@@]45C3=CC(=O)c3ccccc35)cc2c1  0.02 nM
21. CCOc1ccc2[nH]c(C(=O)N3C[C@H]4C[C@@]45C3=CC(=O)c3ccccc35)cc2c1  0.01 nM
22. CCC(=O)c1ccc2[nH]c(C(=O)N3C[C@H]4C[C@@]45C3=CC(=O)c3ccccc35)cc2c1  0.003 nM
23. CC(=O)c1ccc2[nH]c(C(=O)N3C[C@H]4C[C@@]45C3=CC(=O)c3ccccc35)cc2c1  0.002 nM

Same assay, conditions: l1210

Going from `COc1cc2cc(C(=O)N3CC4CC45C3=CC(=O)c3ccccc35)[nH]c2c(OC)c1OC` (single isomer, unassigned; (+)) to `O=C1C=C2N(C(=O)c3cc4c(ccc5ccccc54)[nH]3)CC3CC23c2ccccc21` (stereo in doubt; 4), the IC50 rises from 0.03 nM to 5 nM (170-fold). The first is the more potent here.

Going from `COc1cc2cc(C(=O)N3CC4CC45C3=CC(=O)c3ccccc35)[nH]c2c(OC)c1OC` (stereo in doubt) to `O=C1C=C2N(C(=O)c3cc4c(ccc5ccccc54)[nH]3)CC3CC23c2ccccc21` (stereo in doubt; 5), the IC50 rises from 2 nM to 300 nM (150-fold).

Compared with `O=C1C=C2N(C(=O)c3cc4cc5ccccc5cc4[nH]3)CC3CC23c2ccccc21` (stereo in doubt; 6), `NC(=O)N1CCc2c1ccc1[nH]c(C(=O)N3CC4CC45C3=CC(=O)c3ccccc35)cc21` (stereo in doubt; (+)) is 100-fold lower in IC50: 0.5 nM for the first, 0.005 nM for the second.

`O=C1C=C2N(C(=O)c3cc4cc5ccccc5cc4[nH]3)CC3CC23c2ccccc21` (stereo in doubt; 7) and `NC(=O)N1CCc2c1ccc1[nH]c(C(=O)N3CC4CC45C3=CC(=O)c3ccccc35)cc21` (stereo in doubt; (-)) cannot be ordered by IC50: 400 nM for the first, no less than 0.38 nM for the second.
